According to ChEMBL document CHEMBL1144715, “Synthesis, checkpoint kinase 1 inhibitory properties and in vitro antiproliferative activities of new pyrrolocarbazoles” (Bioorg Med Chem, 2008):

Key:
L1210 = assay: Cytotoxicity against mouse L1210 cells after 4 hrs by microculture tetrazolium assay; assay type: functional, cell-based; details: L1210, 4 h
HCT-116 = assay: Cytotoxicity against human HCT116 cells after 4 hrs by microculture tetrazolium assay; assay type: functional, cell-based; details: HCT-116, 4 h
[1] = molecular target: T1, Serine/threonine-protein kinase Chk1 (Homo sapiens) (UniProt O14757); assay: Inhibition of human Chk1 at 10 uM
T1 sequence (whole entry): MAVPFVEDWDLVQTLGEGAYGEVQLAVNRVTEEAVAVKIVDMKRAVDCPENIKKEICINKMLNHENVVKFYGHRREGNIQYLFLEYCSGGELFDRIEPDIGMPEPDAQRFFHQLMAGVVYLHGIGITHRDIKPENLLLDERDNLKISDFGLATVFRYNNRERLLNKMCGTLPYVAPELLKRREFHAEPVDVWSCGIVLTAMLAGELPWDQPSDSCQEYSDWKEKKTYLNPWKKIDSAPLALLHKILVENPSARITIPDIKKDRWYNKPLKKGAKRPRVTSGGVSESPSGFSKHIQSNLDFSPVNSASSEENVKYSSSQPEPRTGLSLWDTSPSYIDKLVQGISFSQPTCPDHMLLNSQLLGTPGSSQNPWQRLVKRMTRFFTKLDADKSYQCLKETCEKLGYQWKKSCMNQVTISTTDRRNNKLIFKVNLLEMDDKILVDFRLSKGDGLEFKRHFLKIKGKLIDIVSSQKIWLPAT

[2] = molecular target: T2, Serine/threonine-protein kinase Chk1 (Homo sapiens, UniProt O14757); assay: Inhibition of human Chk1
T2 sequence (O14757 whole entry): T1 sequence (whole entry)

HT-29 = assay: Cytotoxicity against human HT29 cells after 4 hrs by microculture tetrazolium assay; assay type: functional, cell-based; details: HT-29, 4 h
[3] = molecular target: Proto-oncogene tyrosine-protein kinase Src (Homo sapiens) (UniProt P12931); assay: Inhibition of Src at 10 uM after 20 mins
Proto-oncogene tyrosine-protein kinase Src (Homo sapiens), sequence (P12931 2-536 limits assumed): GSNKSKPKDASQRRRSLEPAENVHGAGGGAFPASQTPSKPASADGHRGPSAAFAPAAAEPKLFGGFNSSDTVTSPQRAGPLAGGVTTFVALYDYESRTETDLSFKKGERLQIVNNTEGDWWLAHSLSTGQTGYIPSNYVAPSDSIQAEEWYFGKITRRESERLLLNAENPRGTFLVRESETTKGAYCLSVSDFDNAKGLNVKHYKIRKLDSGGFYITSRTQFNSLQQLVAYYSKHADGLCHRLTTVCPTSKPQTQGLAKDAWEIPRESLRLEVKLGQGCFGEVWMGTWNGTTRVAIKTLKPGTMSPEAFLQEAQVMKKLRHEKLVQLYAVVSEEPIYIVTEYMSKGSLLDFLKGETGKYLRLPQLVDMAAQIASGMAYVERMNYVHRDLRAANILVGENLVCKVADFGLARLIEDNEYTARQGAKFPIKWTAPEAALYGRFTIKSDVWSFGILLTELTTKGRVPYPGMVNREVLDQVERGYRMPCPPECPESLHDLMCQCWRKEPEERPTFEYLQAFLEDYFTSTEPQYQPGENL

Row | inhibition [1] | IC50 [2] | inhibition [3] | SMILES | IC50 (L1210) | IC50 (HCT-116) | IC50 (HT-29)
1 | 83% | 0.024 µM | – | O=C1NCc2c1c1c(c3c2[nH]c2ccccc23)C(=O)NC1=O | > 50 µM | 8.54 µM | 0.58 µM
2 | 73% | 1.92 µM | 9% | O=C1NC(=O)c2c1c1c(O)ccc3c1c1c2c2ccccc2n1[C@]1(O3)O[C@H](CO)[C@@H](O)[C@H](O)[C@H]1O | 21.2 µM | 46.4 µM | 57.8 µM
3 | – | – | – | O=C1NC(=O)c2c1c1c3ccccc3[nH]c1n1cncc21 [ISOGRANULATIMIDE] | 10 µM | 13 µM | 13.7 µM
4 | – | – | – | O=C1NC(=O)c2c1c1c(O)ccc(O)c1c1[nH]c3ccccc3c21 | 1.1 µM | 3.1 µM | 5.6 µM
5 | – | – | – | O=C1NC(=O)c2c1c1[nH]cnc1c1[nH]c3ccccc3c21 [GRANULATIMIDE] | 2.8 µM | 6.1 µM | 5.7 µM
6 | 63% | 14.5 µM | – | CC1(C)C(=O)c2c3c(c4c([nH]c5ccccc54)c2C1=O)C(=O)NC3=O | 33 µM | 32.7 µM | 38.5 µM
7 | – | – | – | O=c1ccc(=O)c2c1c1[nH]c3ccccc3c1c1c(=O)[nH]c(=O)c21 | 6.8 µM | 5.3 µM | 17.4 µM
8 | – | 0.051 µM | – | O=C1NC(=O)c2c1c1c(c3c2[nH]c2ccccc23)C(=O)NC1 | – | – | –
9 | – | – | – | O=c1[nH]c(=O)c2c1c1[nH]c3ccccc3c1c1c(=O)[nH]c(=O)c21 [BIS-IMIDE A] | 32.7 µM | – | 9.7 µM
10 | 20% | – | 19% | CC1(C)C(=O)c2c3c(c4c([nH]c5ccccc54)c2C1=O)C(=O)NC3 | 2.2 µM | 1.7 µM | 2.5 µM
